Results: patent publication US20240216355A1, “PHARMACEUTICAL COMPOSITIONS FOR USE IN THE PREVENTION AND TREATMENT OF A DISEASE OR DISORDER CAUSED BY OR ASSOCIATED WITH ONE OR MORE PREMATURE TERMINATION CODONS” (Monte Rosa Therapeutics, Inc., priority 2021, published 2024)
Read-outs that look alike come from different tables or passages of the source.

Assays:
GSPT1 = target: T1, GSPT1 (Homo sapiens, UniProt P15170+Q96SW2); assay: GSPT1 degradation immunofluorescence assay in CAL-51 cells; type: cell-based; conditions: 6 hours treatment
T1 construct: CAL-51 cells were purchased from DSMZ (cat. Number ACC302); host or cells: CAL-51 cells
T1 sequence (P15170 whole entry): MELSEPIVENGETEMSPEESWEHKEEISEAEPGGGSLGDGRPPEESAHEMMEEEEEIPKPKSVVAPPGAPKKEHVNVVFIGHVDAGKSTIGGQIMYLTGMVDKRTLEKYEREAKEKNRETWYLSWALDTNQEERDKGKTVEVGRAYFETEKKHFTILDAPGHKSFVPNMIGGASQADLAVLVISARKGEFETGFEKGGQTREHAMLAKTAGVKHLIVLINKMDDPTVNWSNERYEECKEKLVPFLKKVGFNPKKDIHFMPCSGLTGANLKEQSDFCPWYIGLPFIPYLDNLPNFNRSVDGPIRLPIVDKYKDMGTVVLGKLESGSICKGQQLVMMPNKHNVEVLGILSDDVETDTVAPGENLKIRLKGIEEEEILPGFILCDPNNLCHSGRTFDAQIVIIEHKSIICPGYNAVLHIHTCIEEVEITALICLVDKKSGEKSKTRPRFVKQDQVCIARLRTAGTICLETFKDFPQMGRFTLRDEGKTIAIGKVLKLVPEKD
T1 sequence (Q96SW2 whole entry): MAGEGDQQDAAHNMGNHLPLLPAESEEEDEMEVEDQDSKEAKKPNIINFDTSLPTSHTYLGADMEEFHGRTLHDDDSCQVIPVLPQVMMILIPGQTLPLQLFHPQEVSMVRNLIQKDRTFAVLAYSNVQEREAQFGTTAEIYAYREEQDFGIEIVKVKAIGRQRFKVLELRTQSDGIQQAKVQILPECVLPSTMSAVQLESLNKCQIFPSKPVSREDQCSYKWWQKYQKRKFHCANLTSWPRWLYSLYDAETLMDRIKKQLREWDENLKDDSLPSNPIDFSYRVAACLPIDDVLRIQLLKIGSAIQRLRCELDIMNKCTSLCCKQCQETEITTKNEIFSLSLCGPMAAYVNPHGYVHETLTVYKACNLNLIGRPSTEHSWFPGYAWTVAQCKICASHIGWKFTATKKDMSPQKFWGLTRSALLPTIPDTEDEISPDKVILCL
T1 sequence (Q16531 whole entry partner): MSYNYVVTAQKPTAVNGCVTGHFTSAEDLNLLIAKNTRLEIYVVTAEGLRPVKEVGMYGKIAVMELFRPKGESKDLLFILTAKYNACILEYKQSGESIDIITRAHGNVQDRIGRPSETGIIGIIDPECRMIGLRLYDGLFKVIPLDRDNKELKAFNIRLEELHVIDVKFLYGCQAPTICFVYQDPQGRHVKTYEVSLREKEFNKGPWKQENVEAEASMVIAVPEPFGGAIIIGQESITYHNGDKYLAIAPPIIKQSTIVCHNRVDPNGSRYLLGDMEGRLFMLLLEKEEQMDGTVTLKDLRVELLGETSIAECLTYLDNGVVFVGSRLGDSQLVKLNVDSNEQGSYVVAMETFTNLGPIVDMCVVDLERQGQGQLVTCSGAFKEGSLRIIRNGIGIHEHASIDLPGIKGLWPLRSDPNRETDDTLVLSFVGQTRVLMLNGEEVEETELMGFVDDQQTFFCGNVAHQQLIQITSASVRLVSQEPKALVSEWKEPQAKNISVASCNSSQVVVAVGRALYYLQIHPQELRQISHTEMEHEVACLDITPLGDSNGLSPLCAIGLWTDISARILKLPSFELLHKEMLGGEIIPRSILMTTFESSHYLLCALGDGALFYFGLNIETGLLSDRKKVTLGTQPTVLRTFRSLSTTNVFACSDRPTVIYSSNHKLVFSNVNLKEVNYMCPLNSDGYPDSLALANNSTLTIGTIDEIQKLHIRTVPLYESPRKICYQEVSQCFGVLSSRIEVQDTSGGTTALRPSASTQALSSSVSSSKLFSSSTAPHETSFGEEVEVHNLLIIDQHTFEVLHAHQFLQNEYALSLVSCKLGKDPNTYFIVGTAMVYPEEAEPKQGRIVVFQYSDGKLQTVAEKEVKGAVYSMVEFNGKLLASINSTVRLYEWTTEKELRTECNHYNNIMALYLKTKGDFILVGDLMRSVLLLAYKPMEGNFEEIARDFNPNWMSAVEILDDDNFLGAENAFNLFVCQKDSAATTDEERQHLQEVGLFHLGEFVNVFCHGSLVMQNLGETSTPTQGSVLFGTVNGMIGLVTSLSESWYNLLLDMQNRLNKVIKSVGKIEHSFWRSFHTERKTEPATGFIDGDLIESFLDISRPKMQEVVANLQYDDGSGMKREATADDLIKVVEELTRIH
Experimental: CAL-51 cells were purchased from DSMZ (cat. Number ACC302), sub-cultured in 90% Dulbecco's MEM (4.5 g/L glucose, Gibco 11965)+10% heat inactivated FBS (BioConcept, 2-01F1361) and incubated at 37° C., 5% CO2. For the assay, imaging microtiterplate Cell Carrier 96 Ultra (Perkin Elmer 6055302) were pre-coated with Fibronectin (Sigma F085, 30 μl at 0.2 μg/ml) in PBS (100p, Gibco 14190) for 45 min at room temperature, rinsed with PBS and CAL-51 cells (30K cells/well) were plated and let to adhere overnight. Cells were treated with compounds typically using a serial dilution ranging from 30 μM to 0.1 nM for 6 hours. Compounds were stored at 10 mM DMSO stocks. Vehicle (DMSO), positive (CC-885, 10 μM) and rescue controls (positive control plus 0.2 μM bortezomib) were also included at this stage. Cells were subsequently rinsed with PBS and fixed in 10% Formalin solution (50p, Sigma HT5011)) for 20 mins at room temperature. Following three consecutive PBS washes (100 μl), cells were permeabilized in 0.1% Triton X-100 in PBS (Sigma 93443, 50 μl) for 15 mins at room temperature. Following three further PBS washes, 50 μl blocking buffer (1% BSA, Sigma A4503, in PBS) was added for 45 min for signal-to-noise reduction. Primary antibody (human GSPT1, Sigma HPA052488) was diluted in blocking buffer (dil.1/300, 35 μl/well) and incubated with the cells overnight at 4° C. After three PBS washes, Alexa-fluor 488 coupled secondary antibodies (Invitrogen, A32731, dil. 1/1000), Alexa-fluor 647-Phalloïdin (Invitrogen, A22287, dil. 1/200) and DAPI (Thermo, #62248, dil.1/1000) were diluted in blocking buffer and incubated with the samples for 2 hours at room temperature. After three final PBS washes, samples were conserved in 100 μl PBS in the dark, until measurement. Image acquisition was performed on the Operetta High-Content Imager (Perkin-Elmer). Fluorescence intensity of Alexa-Fluor 488 (GSPT1), Alexa-Fluor 647 (Actin) and DAPI (Nucleus) were measured. For the determination of GSPT1 DC50 values, a custom algorithm implemented in the PerkinElmer image analysis software Harmony-Acapella@ was developed. After user-defined setting of adjustment parameters, the analysis was run identically without human intervention for all image fields. DAPI staining of the nuclei was used to determine the location of cells using standard nuclei detection modules. Segmentation artifacts were removed by threshold-based filters for area, roundness and intensity. The outline of the cells was determined analogously from the sum of the normalized, smoothed DAPI and Actin channel, starting from each nucleus.
The Alexa-Fluor 488 (GSPT1) signal intensity in each cell was finally measured, in order to obtain a Mean intensity per cell. GSPT1 degradation (DC50) was calculated after normalization to controls and data import in CDD vault Database, using non-linear regression.

[1] = target: T2, Full length wild-type cereblon CRBN (Homo sapiens, UniProt Q96SW2); assay: Fluorescence polarization (FP) assay indicating cereblon binding
T2 construct: Full length wild-type cereblon CRBN (80.0 nM, 10 μL) was incubated in assay buffer
T2 sequence (Q96SW2 whole entry): as the sequence (Q96SW2 whole entry) above
Experimental: Compound activity was monitored in a fluorescence polarization (FP) homogeneous assay using 1-[5-({2-[2-(2-{[2-(2,6-dioxopiperidin-3-yl)-1,3-dioxo-2,3-dihydro-1H-isoindol-4-yl]oxy}acetamido)ethoxy]ethyl}carbamoyl)pentyl]-3,3-dimethyl-2-[(1E,3E)-5-[(2E)-1,3,3-trimethyl-5-sulfo-2,3-dihydro-1H-indol-2-ylidene]penta-1,3-dien-1-yl]-3H-indol-1-ium-5-sulfonate as a fluorescent probe. Unless otherwise stated, all reagents were purchased from Sigma Aldrich. Enzymatic reactions were conducted in Perkin-Elmer Black 384 well ProxiPlate Plus (catalogue no. 6008269) in 10 μL total volume. Full length wild-type cereblon CRBN (80.0 nM, 10 μL) was incubated in assay buffer containing 20 mM HEPES (pH 8.0), […], 0.5 mM TCEP and 0.05% Tween 20 in the presence or absence of compound (300 nL). Inhibitors were stored as 10 mM DMSO stocks in an inert environment (low humidity, dark, low oxygen, room temperature) using the Storage Pod System. Compounds and DMSO were dispensed using the Echo E5XX (Labcyte Inc. USA) to give concentrations from 300 to 0.937 or 3000 to 9.3 nM in a 12 data point curve. […] Following incubation at room temperature for 30 min, the assay was initiated by dispensing the probe to a final concentration of 5 nM (2.5 nL of a 20 μM stock) using the Echo E5XX. FP was measured after a period of 12 hours using a Pherastar plate reader (BMG Labtech, Germany) exciting at 590 nm and measuring the amount of parallel and perpendicular light at 675 nm. The FP signal was subsequently normalized to the no-compound control (i.e., DMSO). Analysis and IC50 values were derived using Dotmatics (Dotmatics UK) software.

HBE16 cells = assay: Killing activity (EC10) in HBE16 cells after 72 hr; type: cell-based, human
[2] = test system: G542X cystic fibrosis transmembrane conductance regulator (CFTR) nonsense mutation; assay: HaloTag G542X 5×5 NanoLuc reporter assay (CFTR readthrough) in HBE16 cells; type: cell-based, human
Experimental: FIG. 3A, FIG. 3B, and FIG. 3C show the effect of a representative compound of the disclosure on CFTR readthrough: Readthrough of the common G542X cystic fibrosis transmembrane conductance regulator (CFTR) nonsense mutation was carried out in the immortalized human bronchial epithelial cells HBE16. A HaloTag G542X 5×5 NanoLuc reporter assay was established in that cell line containing the CFTR readthrough cassette bearing the G542X codon as well as 5 codons upstream and downstream from the human CFTR sequence. […] The total protein assay (C) indicates no significant decrease of HBE16 cell viability following treated with the representative compound of the disclosure alone or in combination with G418 (y-axis left indicating protein μg/μL, and y-axis right indicating %).
The total protein assay (C) indicates no significant decrease of HBE16 cell viability following treated with the representative compound of the disclosure alone or in combination with ELX-02 (y-axis left indicating protein μg/μL, and y-axis right indicating %).

[3] = compounds 201 to 307, read-out: Activity for GSPT1 degradation (DC50 code)
[4] = compounds 1 to 165, read-out: Activity for GSPT1 degradation (DC50 code)

SMILES | DC50 (GSPT1; [3]) | IC50 [1] | other results
Cc1cc(C)cc(NC(=O)OCc2ccc3c(c2)C(=O)N(C2CCC(=O)NC2=O)C3)c1 (stereo not shown) [Compound 208] | < 30 nM | < 1100 nM | 
O=C1CCC(N2Cc3ccc(COC(=O)Nc4ccc(C5CC5)cc4)cc3C2=O)C(=O)N1 (stereo not shown) [Compound 239] | < 30 nM | < 1100 nM | 
Cc1c(Cl)cc(NC(=O)NCc2ccc3c(c2)C(=O)N(C2CCC(=O)NC2=O)C3)cc1CN1CCN2CCC1C2 (stereo not shown) [Compound 154] |  | < 1100 nM | DC50 (GSPT1; [4]): > 300 nM
C[C@@H](N)[C@H]1O[C@@H](O[C@@H]2[C@@H](O)[C@H](N)C[C@H](N)[C@H]2O[C@H]2O[C@H]([C@@H](C)O)[C@@H](O)[C@H](O)[C@H]2N)[C@H](O)[C@@H]1O [ELX-02] |  |  | EC10 (concentration resulting in 10% killing activity) (HBE16 cells): 85000 nM; EC50 [2]: 250000 nM; EC10 (readthrough activity, NanoLuc) ([2]; concentration used in combination): 85000 nM
CC1(C)COc2cc(NC(=O)OCc3ccc4c(c3)C(=O)N(C3CCC(=O)NC3=O)C4)ccc21 (stereo not shown) [Compound 283] | < 30 nM | < 1100 nM | 
Cc1ccccc1-c1ccc(NC(=O)OCc2ccc3c(c2)C(=O)N(C2CCC(=O)NC2=O)C3)cn1 (stereo not shown) [Compound 286] | < 30 nM | < 1100 nM | 
CCc1cc(NC(=O)OCc2ccc3c(c2)C(=O)N(C2CCC(=O)NC2=O)C3)cnc1C (stereo not shown) [Compound 255] | < 30 nM | < 1100 nM | 
Cc1cc(NC(=O)OCc2ccc3c(c2)C(=O)N(C2CCC(=O)NC2=O)C3)cnc1-c1ccccc1 (stereo not shown) [Compound 288] | < 30 nM | < 1100 nM | 
CC1(c2ccc(NC(=O)OCc3ccc4c(c3)C(=O)N(C3CCC(=O)NC3=O)C4)cc2)CC1 (stereo not shown) [Compound 258] | < 30 nM | < 1100 nM | 
COc1ccccc1CNC(=O)NCc1ccc2c(c1)C(=O)N(C1CCC(=O)NC1=O)C2 (stereo not shown) [Compound 60] |  | < 1100 nM | DC50 (GSPT1; [4]): > 300 nM
Cc1ncc(NC(=O)OCc2ccc3c(c2)C(=O)N(C2CCC(=O)NC2=O)C3)cc1OC(F)(F)F (stereo not shown) [Compound 291] | < 30 nM | < 1100 nM | 
Cc1ccc(NC(=O)OCc2ccc3c(c2)C(=O)N(C2CCC(=O)NC2=O)C3)cc1OC(F)F (stereo not shown) [Compound 224] | < 30 nM | < 1100 nM | 
O=C1CCC(N2Cc3ccc(COC(=O)Nc4ccc(N5CCCCC5)nc4)cc3C2=O)C(=O)N1 (stereo not shown) [Compound 215] | < 30 nM | < 1100 nM | 
COc1ccccc1-c1ccc(NC(=O)OCc2ccc3c(c2)C(=O)N(C2CCC(=O)NC2=O)C3)cn1 (stereo not shown) [Compound 287] | < 30 nM | < 1100 nM | 
O=C1CCC(N2Cc3ccc(COC(=O)Nc4ccc5c(c4)OCCC5)cc3C2=O)C(=O)N1 (stereo not shown) [Compound 292] | < 30 nM | < 1100 nM | 
CC1CCCCN1c1ccc(NC(=O)OCc2ccc3c(c2)C(=O)N(C2CCC(=O)NC2=O)C3)cn1 (stereo not shown) [Compound 277] | < 30 nM | < 1100 nM | 

Further lines, with some results ahead:

DC50 (GSPT1; [3]) | IC50 [1] | SMILES | other results
 | < 1100 nM | Cc1c(Cl)cc(NC(=O)NCc2ccc3c(c2)C(=O)N(C2CCC(=O)NC2=O)C3)cc1CC1COCCN1C (stereo not shown) [Compound 160] | DC50 (GSPT1; [4]): ≤ 100 nM
< 30 nM | < 1100 nM | Cc1ncc(NC(=O)OCc2ccc3c(c2)C(=O)N(C2CCC(=O)NC2=O)C3)cc1Cl (stereo not shown) [Compound 206] | 
< 30 nM | < 1100 nM | O=C1CCC(N2Cc3ccc(COC(=O)Nc4cc(CN5CCOCC5)cc(OC(F)(F)F)c4)cc3C2=O)C(=O)N1 (stereo not shown) [Compound 204] | 
< 30 nM | < 1100 nM | Cc1c(Cl)cc(NC(=O)OCc2ccc3c(c2)C(=O)N(C2CCC(=O)NC2=O)C3)cc1CN1CCOCC1 (stereo not shown) [Compound 202] | 
< 30 nM | < 1100 nM | Cc1c(CN2CCOCC2)cc(NC(=O)OCc2ccc3c(c2)C(=O)N(C2CCC(=O)NC2=O)C3)cc1OC(F)F (stereo not shown) [Compound 225] | 
< 30 nM | < 1100 nM | Cc1c(Cl)cc(NC(=O)OCc2ccc3c(c2)C(=O)N(C2CCC(=O)NC2=O)C3)cc1CN1CC2CC1CO2 (stereo not shown) [Compound 213] | 
< 30 nM | < 1100 nM | Cc1c(Cl)cc(NC(=O)OCc2ccc3c(c2)C(=O)N(C2CCC(=O)NC2=O)C3)cc1OC1CCN(C)C1 (stereo not shown) [Compound 268] | 
 | < 1100 nM | Cc1c(Cl)cc(NC(=O)NCc2ccc3c(c2)C(=O)N(C2CCC(=O)NC2=O)C3)cc1CN1CC2CCC(C1)O2 (stereo not shown) [Compound 140] | DC50 (GSPT1; [4]): ≤ 100 nM
